Data from ChEMBL document CHEMBL5046216, “Disrupting Tryptophan in the Central Hydrophobic Region Selectively Mitigates Immunomodulatory Activities of the Innate Defence Regulator Peptide IDR-1002” (J Med Chem, 2021).
Active and inactive are the calls of the source. The calls are words filed in the database; no cut-off is given here.

What was measured:
[1] = Stability of the compound in human HBEC3-KT cells assessed as compound degradation ay 10 uM measured after 16 hrs by FRET assay relative to control; type: functional
Mus musculus [2] = test: Effect on IL-23 level in dust-mite-induced BALB/c mouse model of airway inflammation assessed as greater than 2 fold induction at 6 mg/kg, sc administered for 2 weeks and measured 24 hrs post-HDM challenge by MSD multiplex assay; type: functional, organism-based
Mus musculus [3] = test: (§1) Antiinflammatory activity in house dust-mite-induced BALB/c mouse model of methacholine-induced airway hyperreactivity assessed as reduction in methacholine-induced tissue damping at 6 mg/kg , ip administered for 2 weeks after methacholine-stimulation at 12 mg/ml measured 24 hrs post-HDM challenge; type: functional, organism-based
Mus musculus [4] = test: as §1, with “newtonian resistance” for “tissue damping”, “50” for “12”; type: functional; design: scale not given: the % may be the effect or the level left
Mus musculus [5] = test: Effect on MIP1alpha level in dust-mite-induced BALB/c mouse model of airway inflammation assessed as greater than 2 fold induction at 6 mg/kg, sc administered for 2 weeks and measured 24 hrs post-HDM challenge by MSD multiplex assay; type: functional, organism-based
HBEC3-KT [6] = test: Antiinflammatory activity in human HBEC3-KT cells assessed as fold increase in IL-1RA expression at 10 uM measured after 24 hrs by ELISA relative to control; type: functional
Mus musculus [7] = test: Effect on IL-2 level in dust-mite-induced BALB/c mouse model of airway inflammation assessed as greater than 2 fold induction at 6 mg/kg, sc administered for 2 weeks and measured 24 hrs post-HDM challenge by MSD multiplex assay; type: functional, organism-based
Mus musculus [8] = test: Effect on IL-17C level in dust-mite-induced BALB/c mouse model of airway inflammation assessed as greater than 2 fold induction at 6 mg/kg, sc administered for 2 weeks and measured 24 hrs post-HDM challenge by MSD multiplex assay; type: functional, organism-based
HBEC3-KT [9] = test: Antiinflammatory activity in human HBEC3-KT cells assessed as effect on MCP1 expression measured after 24 hrs by ELISA relative to control; type: functional, cell-based
[10] = Retention time of the compound by HPLC analysis; type: physicochemical
Mus musculus [11] = test: Effect on IL-25 level in dust-mite-induced BALB/c mouse model of airway inflammation assessed as greater than 2 fold induction at 6 mg/kg, sc administered for 2 weeks and measured 24 hrs post-HDM challenge by MSD multiplex assay; type: functional, organism-based
Mus musculus [12] = test: Effect on IL-6 level in dust-mite-induced BALB/c mouse model of airway inflammation assessed as greater than 2 fold induction at 6 mg/kg, sc administered for 2 weeks and measured 24 hrs post-HDM challenge by MSD multiplex assay; type: functional, organism-based
Mus musculus [13] = test: Antiinflammatory activity in house dust-mite-induced BALB/c mouse model of airway inflammation assessed as suppression of IL-33 abundance in lung tissue lysate at 6 mg/kg, sc administered for 2 weeks and measured 24 hrs post-HDM challenge by ELISA; type: functional
Mus musculus [14] = test: Effect on MIP2 level in dust-mite-induced BALB/c mouse model of airway inflammation assessed as greater than 2 fold induction at 6 mg/kg, sc administered for 2 weeks and measured 24 hrs post-HDM challenge by MSD multiplex assay; type: functional, organism-based
Mus musculus [15] = test: Antiinflammatory activity in house dust-mite-induced BALB/c mouse model of methacholine-induced airway hyperreactivity assessed as reduction in methacholine-induced tissue damping at 6 mg/kg , ip administered for 2 weeks after methacholine-stimulation at 50 mg/ml measured 24 hrs post-HDM challenge; type: functional; design: scale not given: the % may be the effect or the level left
Mus musculus [16] = test: Effect on IL-17F level in dust-mite-induced BALB/c mouse model of airway inflammation assessed as greater than 2 fold induction at 6 mg/kg, sc administered for 2 weeks and measured 24 hrs post-HDM challenge by MSD multiplex assay; type: functional, organism-based
Mus musculus [17] = test: Effect on IL-31 level in dust-mite-induced BALB/c mouse model of airway inflammation assessed as greater than 2 fold induction at 6 mg/kg, sc administered for 2 weeks and measured 24 hrs post-HDM challenge by MSD multiplex assay; type: functional, organism-based
Mus musculus [18] = test: Effect on IL-1beta level in dust-mite-induced BALB/c mouse model of airway inflammation assessed as greater than 2 fold induction at 6 mg/kg, sc administered for 2 weeks and measured 24 hrs post-HDM challenge by MSD multiplex assay; type: functional, organism-based
Mus musculus [19] = test: Effect on IL-5 level in dust-mite-induced BALB/c mouse model of airway inflammation assessed as greater than 2 fold induction at 6 mg/kg, sc administered for 2 weeks and measured 24 hrs post-HDM challenge by MSD multiplex assay; type: functional, organism-based
Mus musculus [20] = test: Effect on MCP1 level in dust-mite-induced BALB/c mouse model of airway inflammation assessed as greater than 2 fold induction at 6 mg/kg, sc administered for 2 weeks and measured 24 hrs post-HDM challenge by MSD multiplex assay; type: functional, organism-based
Mus musculus [21] = test: Effect on IL-21 level in dust-mite-induced BALB/c mouse model of airway inflammation assessed as greater than 2 fold induction at 6 mg/kg, sc administered for 2 weeks and measured 24 hrs post-HDM challenge by MSD multiplex assay; type: functional, organism-based
Mus musculus [22] = test: Effect on IL-17A level in dust-mite-induced BALB/c mouse model of airway inflammation assessed as greater than 2 fold induction at 6 mg/kg, sc administered for 2 weeks and measured 24 hrs post-HDM challenge by MSD multiplex assay; type: functional, organism-based
Mus musculus [23] = test: Effect on IL-30 level in dust-mite-induced BALB/c mouse model of airway inflammation assessed as greater than 2 fold induction at 6 mg/kg, sc administered for 2 weeks and measured 24 hrs post-HDM challenge by MSD multiplex assay; type: functional, organism-based
Mus musculus [24] = test: Antiinflammatory activity in house dust-mite-induced BALB/c mouse model of methacholine-induced airway hyperreactivity assessed as reduction in methacholine-induced tissue elastance at 6 mg/kg , ip administered for 2 weeks after methacholine-stimulation at 12 mg/ml measured 24 hrs post-HDM challenge; type: functional, organism-based
Mus musculus [25] = test: Effect on IP10 level in dust-mite-induced BALB/c mouse model of airway inflammation assessed as greater than 2 fold induction at 6 mg/kg, sc administered for 2 weeks and measured 24 hrs post-HDM challenge by MSD multiplex assay; type: functional, organism-based
Mus musculus [26] = test: Effect on IL-22 level in dust-mite-induced BALB/c mouse model of airway inflammation assessed as greater than 2 fold induction at 6 mg/kg, sc administered for 2 weeks and measured 24 hrs post-HDM challenge by MSD multiplex assay; type: functional, organism-based
HBEC3-KT [27] = test: Cytotoxicity against human HBEC3-KT incubated for 24 hrs by LDH assay; type: functional
Mus musculus [28] = test: Effect on MIP3alpha level in dust-mite-induced BALB/c mouse model of airway inflammation assessed as greater than 2 fold induction at 6 mg/kg, sc administered for 2 weeks and measured 24 hrs post-HDM challenge by MSD multiplex assay; type: functional, organism-based
Mus musculus [29] = test: Antiinflammatory activity in house dust-mite-induced BALB/c mouse model of methacholine-induced airway hyperreactivity assessed as reduction in methacholine-induced tissue elastance at 6 mg/kg , ip administered for 2 weeks after methacholine-stimulation at 50 mg/ml measured 24 hrs post-HDM challenge; type: functional; design: scale not given: the % may be the effect or the level left
Mus musculus [30] = test: Antiinflammatory activity in house dust-mite-induced BALB/c mouse model of airway inflammation assessed as suppression of total neutrophil count in BALF at 6 mg/kg, sc administered for 2 weeks and measured 24 hrs post-HDM challenge by Wright-Giemsa staining based microscopy; type: functional
Mus musculus [31] = test: Antiinflammatory activity in house dust-mite-induced BALB/c mouse model of airway inflammation assessed as suppression of total leukocyte count in BALF at 6 mg/kg, sc administered for 2 weeks and measured 24 hrs post-HDM challenge by Wright-Giemsa staining based microscopy; type: functional
Mus musculus [32] = test: Effect on IL-4 level in dust-mite-induced BALB/c mouse model of airway inflammation assessed as greater than 2 fold induction at 6 mg/kg, sc administered for 2 weeks and measured 24 hrs post-HDM challenge by MSD multiplex assay; type: functional, organism-based
Mus musculus [33] = test: Effect on IL-10 level in dust-mite-induced BALB/c mouse model of airway inflammation assessed as greater than 2 fold induction at 6 mg/kg, sc administered for 2 weeks and measured 24 hrs post-HDM challenge by MSD multiplex assay; type: functional, organism-based
Mus musculus [34] = test: Effect on IL-17AF level in dust-mite-induced BALB/c mouse model of airway inflammation assessed as greater than 2 fold induction at 6 mg/kg, sc administered for 2 weeks and measured 24 hrs post-HDM challenge by MSD multiplex assay; type: functional, organism-based
HBEC3-KT [35] = test: Antiinflammatory activity in INFgamma-induced MCP1 expressed in human HBEC3-KT cells assessed as fold change measured after 24 hrs by ELISA relative to control; type: functional
Mus musculus [36] = test: Effect on IFNgamma level in dust-mite-induced BALB/c mouse model of airway inflammation assessed as greater than 2 fold induction at 6 mg/kg, sc administered for 2 weeks and measured 24 hrs post-HDM challenge by MSD multiplex assay; type: functional, organism-based
HBEC3-KT [37] = test: Immunomodulatory activity in human HBEC3-KT cells assessed as suppression of INFgamma-induced IL-33 at 10 uM preincubated for 30 mins followed by INFgamma stimulation and measured after 24 hrs by Western blot analysis; type: functional
HBEC3-KT [38] = test: Antiinflammatory activity in human HBEC3-KT cells assessed as fold increase in STC1 expression at 10 uM measured after 24 hrs by ELISA relative to control; type: functional
Mus musculus [39] = test: Effect on IL-15 level in dust-mite-induced BALB/c mouse model of airway inflammation assessed as greater than 2 fold induction at 6 mg/kg, sc administered for 2 weeks and measured 24 hrs post-HDM challenge by MSD multiplex assay; type: functional, organism-based
Mus musculus [40] = test: Effect on IL-12p70 level in dust-mite-induced BALB/c mouse model of airway inflammation assessed as greater than 2 fold induction at 6 mg/kg, sc administered for 2 weeks and measured 24 hrs post-HDM challenge by MSD multiplex assay; type: functional, organism-based
Mus musculus [41] = test: Effect on TNF 1 level in dust-mite-induced BALB/c mouse model of airway inflammation assessed as greater than 2 fold induction at 6 mg/kg, sc administered for 2 weeks and measured 24 hrs post-HDM challenge by MSD multiplex assay; type: functional, organism-based
Mus musculus [42] = test: as §1, with “newtonian resistance” for “tissue damping”; type: functional, organism-based
Mus musculus [43] = test: Effect on IL-9 level in dust-mite-induced BALB/c mouse model of airway inflammation assessed as greater than 2 fold induction at 6 mg/kg, sc administered for 2 weeks and measured 24 hrs post-HDM challenge by MSD multiplex assay; type: functional, organism-based
Mus musculus [44] = test: Antiinflammatory activity in house dust-mite-induced BALB/c mouse model of airway inflammation assessed as suppression of total eosinophil count in BALF at 6 mg/kg, sc administered for 2 weeks and measured 24 hrs post-HDM challenge by Wright-Giemsa staining based microscopy; type: functional
Mus musculus [45] = test: Effect on KC 10 level in dust-mite-induced BALB/c mouse model of airway inflammation assessed as greater than 2 fold induction at 6 mg/kg, sc administered for 2 weeks and measured 24 hrs post-HDM challenge by MSD multiplex assay; type: functional, organism-based

Which results are given for H-VQRWLIVRRIRK-OH?
Activity [1]: <5%; Activity (Mus musculus [2]): inactive; Activity (Mus musculus [3]): Active; Activity (Mus musculus [4]): 39%; Activity (Mus musculus [5]): inactive; Activity (HBEC3-KT [6]): inactive; Activity (Mus musculus [7]): inactive; Activity (Mus musculus [8]): inactive; Activity (HBEC3-KT [9]): inactive; Retention_time [10]: 14.04 min; Activity (Mus musculus [11]): inactive; Activity (Mus musculus [12]): inactive; Activity (Mus musculus [13]): inactive; Activity (Mus musculus [14]): inactive; Activity (Mus musculus [15]): 64%; Activity (Mus musculus [16]): inactive; Activity (Mus musculus [17]): inactive; Activity (Mus musculus [18]): inactive; Activity (Mus musculus [19]): inactive; Activity (Mus musculus [20]): inactive; Activity (Mus musculus [21]): inactive; Activity (Mus musculus [22]): inactive; Activity (Mus musculus [23]): inactive; Activity (Mus musculus [24]): Active; Activity (Mus musculus [25]): inactive; Activity (Mus musculus [26]): inactive; Activity (HBEC3-KT [27]): inactive; Activity (Mus musculus [28]): inactive; Activity (Mus musculus [29]): 63%; Activity (Mus musculus [30]): inactive; Activity (Mus musculus [31]): inactive; Activity (Mus musculus [32]): inactive; Activity (Mus musculus [33]): inactive; Activity (Mus musculus [34]): inactive; fold change (FC) (HBEC3-KT [35]): inactive; Activity (Mus musculus [36]): inactive; Activity (HBEC3-KT [37]): inactive; fold change (FC) (HBEC3-KT [38]): inactive; Activity (Mus musculus [39]): inactive; Activity (Mus musculus [40]): inactive; Activity (Mus musculus [41]): inactive; Activity (Mus musculus [42]): Active; Activity (Mus musculus [43]): inactive; Activity (Mus musculus [44]): inactive; Activity (Mus musculus [45]): inactive
